Test results as given in ChEMBL document CHEMBL1133142, “Synthesis of dolichyl phosphate derivatives with fluorescent label at the omega-end of the chain, new tools to study protein glycosylation” (Bioorg Med Chem Lett, 2000).

Key:
[1] = system: Saccharomyces cerevisiae; experiment: Tested for the kinetic parameter relative Kcat on Dolichyl phosphate mannose synthase
[2] = system: Saccharomyces cerevisiae; experiment: Tested for the kinetic constant (Km) against the enzyme Dolichyl phosphate mannose synthase

k cat [1]: 1.27 | Km [2]: 11.7 µM
Structure (SMILES): C/C(=C\CC/C(C)=C/CC/C(C)=C/CC/C(C)=C/CC/C(C)=C/CC/C(C)=C/CC/C(C)=C/CCC(C)CCOP(=O)(O)O)CC/C=C(\C)CC/C=C(\C)CC/C=C(\C)CC/C=C(\C)CC/C=C(\C)CC/C=C(\C)CC/C=C(\C)CCCNc1cccc2ccccc12 (configuration not stated)
